Measurements as given in PubChem BioAssay (NCI).
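All cell lines were grown in 96-well plates and treated with compound for 48 hours. The concentration for full growth arrest is given as TGI.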

Columns and labels:
Assay in all cases: NCI-60 cell line screen, 48 h
786-0 renal = system: 786-0 renal
A498 renal = system: A498 renal
A549 NSCLC = system: A549 NSCLC
ACHN renal = system: ACHN renal
CAKI-1 renal = system: CAKI-1 renal
CCRF-CEM leukemia = system: CCRF-CEM leukemia
COLO 205 colon = system: COLO 205 colon
DU-145 prostate = system: DU-145 prostate
EKVX NSCLC = system: EKVX NSCLC
HCC-2998 colon = system: HCC-2998 colon
HCT-116 colon = system: HCT-116 colon
HCT-15 colon = system: HCT-15 colon
HL-60(TB) leukemia = system: HL-60(TB) leukemia
HOP-62 NSCLC = system: HOP-62 NSCLC
HOP-92 NSCLC = system: HOP-92 NSCLC
HS 578T breast = system: HS 578T breast
HT29 colon = system: HT29 colon
IGROV1 ovarian = system: IGROV1 ovarian
K-562 leukemia = system: K-562 leukemia
KM12 colon = system: KM12 colon
LOX IMVI melanoma = system: LOX IMVI melanoma
M14 melanoma = system: M14 melanoma
MALME-3M melanoma = system: MALME-3M melanoma
MCF7 breast = system: MCF7 breast
MDA-MB-231 breast = system: MDA-MB-231 breast
MDA-MB-435 = system: MDA-MB-435
MDA-N = system: MDA-N
MOLT-4 leukemia = system: MOLT-4 leukemia
NCI-H226 lung = system: NCI-H226 lung
NCI-H23 lung = system: NCI-H23 lung
NCI-H460 lung = system: NCI-H460 lung
NCI-H522 lung = system: NCI-H522 lung
NCI/ADR-RES ovarian = system: NCI/ADR-RES ovarian
OVCAR-3 ovarian = system: OVCAR-3 ovarian
OVCAR-4 ovarian = system: OVCAR-4 ovarian
OVCAR-5 ovarian = system: OVCAR-5 ovarian
OVCAR-8 ovarian = system: OVCAR-8 ovarian
PC-3 prostate = system: PC-3 prostate
RPMI-8226 leukemia = system: RPMI-8226 leukemia
RXF 393 renal = system: RXF 393 renal
SF-268 CNS = system: SF-268 CNS
SF-295 CNS = system: SF-295 CNS
SF-539 CNS = system: SF-539 CNS
SK-MEL-2 melanoma = system: SK-MEL-2 melanoma
SK-MEL-28 melanoma = system: SK-MEL-28 melanoma
SK-MEL-5 melanoma = system: SK-MEL-5 melanoma
SK-OV-3 ovarian = system: SK-OV-3 ovarian
SN12C renal = system: SN12C renal
SNB-19 CNS = system: SNB-19 CNS
SNB-75 CNS = system: SNB-75 CNS
SR leukemia = system: SR leukemia
SW-620 colon = system: SW-620 colon
T-47D breast = system: T-47D breast
TK-10 renal = system: TK-10 renal
U251 CNS = system: U251 CNS
UACC-257 melanoma = system: UACC-257 melanoma
UACC-62 melanoma = system: UACC-62 melanoma
UO-31 renal = system: UO-31 renal
BT-549 breast = system: BT-549 breast

## Oc1ccccc1/C=N/N1C(=S)N(c2ccccc2)C(=Nc2ccccc2)C1=Nc1ccccc1
786-0 renal
  TGI: 14.1 µM
A498 renal
  TGI: 17.2 µM
A549 NSCLC
  TGI: 37.7 µM
ACHN renal
  TGI: 17.5 µM
CAKI-1 renal
  TGI: 29.6 µM
CCRF-CEM leukemia
  TGI: > 62.9 µM
COLO 205 colon
  TGI: 11.3 µM
DU-145 prostate
  TGI: > 68.3 µM
EKVX NSCLC
  TGI: 32.2 µM
HCC-2998 colon
  TGI: > 78.2 µM
HCT-116 colon
  TGI: 26.5 µM
HCT-15 colon
  TGI: > 100 µM
HL-60(TB) leukemia
  TGI: > 86.1 µM
HOP-62 NSCLC
  TGI: 22.6 µM
HOP-92 NSCLC
  TGI: 16.3 µM
HS 578T breast
  TGI: 37.7 µM
HT29 colon
  TGI: 12.7 µM
IGROV1 ovarian
  TGI: 30.8 µM
K-562 leukemia
  TGI: > 64.7 µM
KM12 colon
  TGI: > 100 µM
LOX IMVI melanoma
  TGI: 36.2 µM
M14 melanoma
  TGI: 28.7 µM
MALME-3M melanoma
  TGI: > 54.6 µM
MCF7 breast
  TGI: > 100 µM
MDA-MB-231 breast
  TGI: 24.1 µM
MDA-MB-435
  TGI: > 60 µM
MDA-N
  TGI: > 52.1 µM
MOLT-4 leukemia
  TGI: > 89.5 µM
NCI-H226 lung
  TGI: 26.4 µM
NCI-H23 lung
  TGI: 24.9 µM
NCI-H460 lung
  TGI: 32.4 µM
NCI-H522 lung
  TGI: 12.6 µM
NCI/ADR-RES ovarian
  TGI: 41 µM
OVCAR-3 ovarian
  TGI: 28.2 µM
OVCAR-4 ovarian
  TGI: 15.2 µM
OVCAR-5 ovarian
  TGI: > 52.4 µM
OVCAR-8 ovarian
  TGI: 18.2 µM
PC-3 prostate
  TGI: 47.2 µM
RPMI-8226 leukemia
  TGI: > 72.8 µM
RXF 393 renal
  TGI: 18.1 µM
SF-268 CNS
  TGI: 26.7 µM
SF-295 CNS
  TGI: 23.2 µM
SF-539 CNS
  TGI: 17.9 µM
SK-MEL-2 melanoma
  TGI: 42.9 µM
SK-MEL-28 melanoma
  TGI: 80.5 µM
SK-MEL-5 melanoma
  TGI: 40.9 µM
SK-OV-3 ovarian
  TGI: 30.7 µM
SN12C renal
  TGI: 28.2 µM
SNB-19 CNS
  TGI: 20.7 µM
SNB-75 CNS
  TGI: 11.4 µM
SR leukemia
  TGI: > 81.2 µM
SW-620 colon
  TGI: > 54.1 µM
T-47D breast
  TGI: 75.6 µM
TK-10 renal
  TGI: 20.8 µM
U251 CNS
  TGI: 14.2 µM
UACC-257 melanoma
  TGI: > 68 µM
UACC-62 melanoma
  TGI: 29.3 µM
UO-31 renal
  TGI: 33.1 µM

## CC1(C)C(=O)C2(N)CCC1C2 (stereo not drawn)
786-0 renal
  TGI: > 100 µM
ACHN renal
  TGI: > 100 µM
BT-549 breast
  TGI: > 100 µM
CAKI-1 renal
  TGI: > 100 µM
CCRF-CEM leukemia
  TGI: > 100 µM
COLO 205 colon
  TGI: > 100 µM
DU-145 prostate
  TGI: > 100 µM
HCC-2998 colon
  TGI: > 100 µM
HCT-116 colon
  TGI: > 100 µM
HCT-15 colon
  TGI: > 100 µM
HOP-92 NSCLC
  TGI: > 100 µM
KM12 colon
  TGI: > 100 µM
LOX IMVI melanoma
  TGI: > 100 µM
MDA-MB-231 breast
  TGI: > 100 µM
MDA-MB-435
  TGI: > 100 µM
MDA-N
  TGI: > 100 µM
NCI-H226 lung
  TGI: > 100 µM
NCI-H23 lung
  TGI: > 100 µM
NCI-H460 lung
  TGI: > 100 µM
NCI/ADR-RES ovarian
  TGI: > 100 µM
OVCAR-4 ovarian
  TGI: > 100 µM
OVCAR-8 ovarian
  TGI: > 100 µM
RPMI-8226 leukemia
  TGI: > 100 µM
SF-268 CNS
  TGI: > 100 µM
SK-MEL-28 melanoma
  TGI: > 100 µM
SN12C renal
  TGI: > 100 µM
SNB-19 CNS
  TGI: > 100 µM
SNB-75 CNS
  TGI: > 100 µM
SR leukemia
  TGI: > 100 µM
T-47D breast
  TGI: > 100 µM
TK-10 renal
  TGI: > 100 µM
U251 CNS
  TGI: > 100 µM
UACC-257 melanoma
  TGI: > 100 µM
UACC-62 melanoma
  TGI: > 100 µM
UO-31 renal
  TGI: > 100 µM
